This note sets out measurements from PubChem BioAssay (NCI).

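48-hour exposure; five concentrations; linearly interpolated endpoints. Abbreviation: GI50, concentration required for 50% inhibition of growth. TGI marks complete inhibition of growth.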

Test systems include EKVX NSCLC; SF-295 CNS; COLO 205 colon; MDA-N; NCI-H522 lung; CCRF-CEM leukemia; SK-MEL-2 melanoma; RXF 393 renal; KM12 colon; HCC-2998 colon; DU-145 prostate.
Holding throughout (assay): NCI tumour cell line growth inhibition, 48 h

Take `Cc1nc2c(o1)C(=O)c1ccccc1/C2=N/c1ccccn1`: the TGI in the test on EKVX NSCLC was 41.6 µM; with SF-295 CNS, greater than 100 µM; in the test on COLO 205 colon, greater than 100 µM; in the test on MDA-N it was 32.6 µM; in the test with NCI-H522 lung it was 35.9 µM; with CCRF-CEM leukemia, 65.7 µM. Besides, the TGI is 43.6 µM in the test with SK-MEL-2 melanoma, greater than 100 µM in the test with RXF 393 renal, 42.2 µM in the test with KM12 colon and greater than 100 µM with HCC-2998 colon.

As to `CC1(O)CC2C(CC1SCCO)C2(C)C` (centres undefined), the TGI in the test on EKVX NSCLC, in the test on SF-295 CNS, in the test with COLO 205 colon, in the test with CCRF-CEM leukemia, in the test on SK-MEL-2 melanoma and with KM12 colon was greater than 100 µM each time. In the test on HCC-2998 colon, this compound registered a TGI greater than 100 µM.

Regarding `O=C1c2ccccc2-c2nc(-c3cccnc3)cc3c2c1nc1ccccc13`, the TGI in the test on DU-145 prostate, in the test with EKVX NSCLC, in the test with SF-295 CNS, in the test with COLO 205 colon, in the test on NCI-H522 lung and with CCRF-CEM leukemia was greater than 100 µM each time. The TGI in the test with SK-MEL-2 melanoma and with HCC-2998 colon was greater than 100 µM each time.

In the case of `CCOc1ccc2c(c1)/C(=C(\C(Cl)=C(Cl)Cl)[N+](=O)[O-])N2`, the TGI in the test with DU-145 prostate, with EKVX NSCLC, with SF-295 CNS, with COLO 205 colon, in the test with MDA-N and with CCRF-CEM leukemia was greater than 100 µM each time. The TGI in the test with SK-MEL-2 melanoma, with KM12 colon and in the test on HCC-2998 colon was greater than 100 µM throughout.

Consider `C=C1c2c(cc3c(c2O)c(=O)c2ccccc2n3C)OC1(C)C`, for which the TGI is greater than 100 µM in the test with EKVX NSCLC; greater than 100 µM in the test on SF-295 CNS; greater than 100 µM in the test on COLO 205 colon; 9.49 µM in the test on NCI-H522 lung; greater than 100 µM with CCRF-CEM leukemia; greater than 100 µM in the test with SK-MEL-2 melanoma.

Consider `NC(=O)CCC(NCc1c2ccccc2[n+]([O-])c2ccccc12)C(=O)O` (centres undefined), for which the TGI in the test on EKVX NSCLC, in the test on SF-295 CNS, in the test on COLO 205 colon, in the test with NCI-H522 lung, with CCRF-CEM leukemia and in the test with SK-MEL-2 melanoma was greater than 100 µM each time. Besides, the TGI in the test with KM12 colon and in the test with HCC-2998 colon was greater than 100 µM each time.

As for `CCP(=O)(CC)C(Cl)(Cl)C(O)C(C)(C)C` (centres undefined), the TGI in the test with DU-145 prostate, in the test on SF-295 CNS, in the test on COLO 205 colon, in the test on MDA-N, in the test on NCI-H522 lung and in the test with CCRF-CEM leukemia was greater than 100 µM in each case. Also, the TGI in the test with SK-MEL-2 melanoma and in the test with HCC-2998 colon was greater than 100 µM throughout.

For `CCCNC(=S)N/N=C/c1cccc(C)n1`, the TGI is greater than 100 µM in the test on EKVX NSCLC; greater than 100 µM in the test with SF-295 CNS; greater than 100 µM in the test on COLO 205 colon; greater than 100 µM with MDA-N; 37 µM in the test on NCI-H522 lung; 7.05 µM in the test with CCRF-CEM leukemia. Also, the TGI in the test with SK-MEL-2 melanoma was 58.9 µM; in the test with RXF 393 renal, greater than 100 µM; in the test with KM12 colon it was greater than 100 µM; in the test with HCC-2998 colon, greater than 100 µM.

With `O=C1OCC(C#Cc2ccccc2)=C1Cl`, the GI50 in the test with DU-145 prostate was 1.6 µM; in the test on EKVX NSCLC, 1.91 µM; in the test on SF-295 CNS, 21.6 µM; with COLO 205 colon it was 2.33 µM; in the test on NCI-H522 lung it was 3.08 µM; in the test on CCRF-CEM leukemia, 0.222 µM. Also, the results for the GI50 in the test on SK-MEL-2 melanoma, in the test with KM12 colon and in the test on HCC-2998 colon were 8.61 µM, 2.65 µM and 3.78 µM, respectively. For the same compound, the TGI with DU-145 prostate is 11.8 µM; in the test on EKVX NSCLC it was 6.17 µM; with SF-295 CNS, greater than 100 µM; in the test on COLO 205 colon, 7.79 µM; with NCI-H522 lung it was 14.7 µM; in the test on CCRF-CEM leukemia, 18.1 µM. The TGI with SK-MEL-2 melanoma amounted to 40.7 µM; in the test on KM12 colon, 12.1 µM; in the test with HCC-2998 colon, 15.2 µM.

For `Cc1ccc(C(=O)C(C)N)cc1` (centres undefined), the TGI in the test with EKVX NSCLC, in the test on SF-295 CNS, with COLO 205 colon, with NCI-H522 lung, in the test on CCRF-CEM leukemia and with SK-MEL-2 melanoma was greater than 100 µM in each case. Also, the TGI in the test on RXF 393 renal, in the test on KM12 colon and in the test with HCC-2998 colon was greater than 100 µM each time.

Take `O=C(NO)c1coc2ccccc2c1=O`: the TGI with EKVX NSCLC, with SF-295 CNS, in the test with COLO 205 colon, in the test on NCI-H522 lung, in the test on CCRF-CEM leukemia and with SK-MEL-2 melanoma was greater than 100 µM throughout. Also, the TGI in the test with RXF 393 renal, in the test on KM12 colon and in the test on HCC-2998 colon was greater than 100 µM throughout.

Consider `CC(C)(C)[Si](C)(C)OCCCC#CCO`, for which the TGI in the test with EKVX NSCLC, in the test with SF-295 CNS, in the test on COLO 205 colon, in the test with NCI-H522 lung, with CCRF-CEM leukemia and in the test on SK-MEL-2 melanoma was greater than 100 µM in each case. Further, the TGI in the test with RXF 393 renal, in the test on KM12 colon and with HCC-2998 colon was greater than 100 µM in each case.

As to `O=C1C2C=CC1C1C(=O)OC(=O)C21` (centres undefined), the TGI in the test with DU-145 prostate, in the test on EKVX NSCLC, in the test with SF-295 CNS, with COLO 205 colon, in the test with MDA-N and in the test with NCI-H522 lung was greater than 100 µM throughout. In addition, the TGI in the test on CCRF-CEM leukemia, in the test with SK-MEL-2 melanoma, with KM12 colon and with HCC-2998 colon was greater than 100 µM in each case.

In the case of `Cc1c(-c2cc3n(n2)C(c2cccs2)C(C#N)=C(c2ccccc2)N3)c(=O)n(-c2ccccc2)n1C` (centres undefined), the TGI in the test on EKVX NSCLC, with SF-295 CNS, with COLO 205 colon, in the test with NCI-H522 lung, in the test with CCRF-CEM leukemia and in the test on SK-MEL-2 melanoma was greater than 100 µM throughout. In addition, the TGI in the test with RXF 393 renal, with KM12 colon and in the test on HCC-2998 colon was greater than 100 µM in each case.

As to `COC(OC)c1cccc2c1C1(O)CCC3(CC21)OCCCCO3` (centres undefined), the TGI in the test on SF-295 CNS, with COLO 205 colon, in the test with NCI-H522 lung, in the test on CCRF-CEM leukemia, with SK-MEL-2 melanoma and with RXF 393 renal was greater than 100 µM in each case. The TGI in the test on KM12 colon and in the test with HCC-2998 colon was greater than 100 µM each time.

Take `COC(=O)C1=Nc2c(C)nn(-c3ccccc3)c2N=C(c2ccc(C)cc2)C1`: the TGI in the test on DU-145 prostate, in the test on SF-295 CNS, with COLO 205 colon, with MDA-N, with NCI-H522 lung and in the test with KM12 colon was greater than 10 µM in each case. In the test on HCC-2998 colon, this compound returned a TGI greater than 10 µM.

Regarding `C=C(C=O)c1c2c(nc3ccccc13)C(=O)c1ccccc1C2=O`, the TGI with DU-145 prostate stood at 0.982 µM; with EKVX NSCLC, 3.61 µM; in the test on SF-295 CNS it was 2.76 µM; in the test on NCI-H522 lung, 2.09 µM; in the test on CCRF-CEM leukemia, 0.792 µM; in the test on KM12 colon, 2.71 µM. The same compound came in with a TGI in the test on HCC-2998 colon greater than 100 µM.

Consider `Cc1cc2[nH]c3c(C#N)c(-c4ccccc4)c(N=Nc4cccc(C(F)(F)F)c4)c(=O)n3c2cc1C`, for which the TGI in the test with EKVX NSCLC is greater than 100 µM; with SF-295 CNS, greater than 100 µM; in the test on COLO 205 colon it was greater than 100 µM; with MDA-N it was greater than 100 µM; in the test on NCI-H522 lung it was 69.4 µM; in the test with CCRF-CEM leukemia, greater than 100 µM. In addition, the TGI in the test with SK-MEL-2 melanoma, with RXF 393 renal, in the test on KM12 colon and in the test on HCC-2998 colon was greater than 100 µM in each case.

In the case of `O=P(O)(O)C(CSc1ccccc1)P(=O)(O)O`, the TGI with EKVX NSCLC, in the test on SF-295 CNS, in the test with COLO 205 colon, with NCI-H522 lung, with CCRF-CEM leukemia and in the test on SK-MEL-2 melanoma was greater than 100 µM in each case. Also, the TGI in the test on RXF 393 renal, in the test on KM12 colon and with HCC-2998 colon was greater than 100 µM in each case.

For the compound `CCc1n[nH]c(=O)n1N1C(=O)C2CC=CCC2C1=O` (centres undefined), the TGI in the test with EKVX NSCLC, with SF-295 CNS, with COLO 205 colon, in the test on MDA-N, in the test with NCI-H522 lung and with CCRF-CEM leukemia was greater than 100 µM each time. The TGI in the test on SK-MEL-2 melanoma, in the test on RXF 393 renal, in the test with KM12 colon and in the test with HCC-2998 colon was greater than 100 µM in each case.

On to `O=C1CCCc2c1c1c(n2Cc2ccccc2)-c2ccccc2C1=O`, for which the TGI is greater than 100 µM in the test on DU-145 prostate; 91.3 µM with EKVX NSCLC; 37.5 µM in the test with SF-295 CNS; 42.8 µM in the test on COLO 205 colon; 33.8 µM in the test with NCI-H522 lung; greater than 100 µM in the test with CCRF-CEM leukemia. The TGI is 43 µM in the test with SK-MEL-2 melanoma, greater than 100 µM in the test on RXF 393 renal, 47 µM in the test on KM12 colon and 30.3 µM in the test on HCC-2998 colon.

Regarding `CC(=O)[O-].CC(=O)[O-].O=C(N/N=C/c1cc(Cl)cc(Cl)c1[OH2+])c1ccncc1.[Co+2]`, the TGI with EKVX NSCLC, in the test with SF-295 CNS, with COLO 205 colon, in the test on NCI-H522 lung, with CCRF-CEM leukemia and in the test on RXF 393 renal was greater than 100 µM in each case. The TGI in the test on KM12 colon and with HCC-2998 colon was greater than 100 µM throughout.
